Test results from PMC4965013, “Open Source Drug Discovery with the Malaria Box Compound Collection for Neglected Diseases and Beyond” (PLoS Pathogens, 2016).

Tests used:
P. falciparum = assay: EC50 listed in S2 Table Metabolomics (used to set the concentration tested); format: cell-based; conditions: Plasmodium falciparum; EC50 used for Factor_XEC50 in metabolomics; read-out: EC50_nM
[1] = test system: P. falciparum 3D7 trophozoites; assay: Metabolomic fingerprint profiling LC-MS; format: cell-based, Plasmodium falciparum; parameters: UDP-D-glucose / ADP-D-glucose: unit not given here; conditions: for Acetyllysine / N-acetyl-L-ornithine / N-carbamoyl-L-aspartate / NADPH / dAMP / dCMP / dTDP / dTMP / dTTP / dihydroorotate / orotate / DLH / DLS/SDL/SID / PD / PEE / PVNF / 3-phosphoglycerate / ADP-D-glucose / ATP / CDP / D-sedoheptulose-1/7-phosphate / FAD / GMP / NAD+ / NADP+ / Octoluse Bisphosphate / Pyroglutamic acid / UDP-D-glucose / UDP-D-glucuronate / UDP-N-acetyl-glucosamine / UDP / UMP / UTP / a-ketoglutarate / citrate/isocitrate / cytidine / dATP / dGMP/AMP / fumarate / glucose-1/6-phosphate / glycerate / guanine / guanosine / hypoxanthine / indole / inosine / nicotinate / ornithine / phosphoenolpyruvate / pyruvate / ribose-phosphate / sarcosine/alanine / sn-glycerol-3-phosphate / succinate/methylmalonic acid / uridine / xanthosine: S2 Table Metabolomics; for Acetyllysine: metabolite Acetyllysine; for N-acetyl-L-ornithine: metabolite N-acetyl-L-ornithine; for N-carbamoyl-L-aspartate: metabolite N-carbamoyl-L-aspartate; for NADPH: metabolite NADPH; for dAMP: metabolite dAMP; for dCMP: metabolite dCMP; for dTDP: metabolite dTDP; for dTMP: metabolite dTMP; for dTTP: metabolite dTTP; for dihydroorotate: metabolite dihydroorotate; for orotate: metabolite orotate; for DLH: peptide DLH; for DLS/SDL/SID: peptide DLS/SDL/SID; for PD: peptide PD; for PEE: peptide PEE; for PVNF: peptide PVNF; for 3-phosphoglycerate: metabolite 3-phosphoglycerate; for ADP-D-glucose: metabolite ADP-D-glucose; for ATP: metabolite ATP; for CDP: metabolite CDP; for CDP / D-sedoheptulose-1/7-phosphate / GMP / Octoluse Bisphosphate / UDP / UMP / UTP / citrate/isocitrate / dGMP/AMP / fumarate / glucose-1/6-phosphate / glycerate / guanine / guanosine / inosine / pyruvate / sarcosine/alanine / succinate/methylmalonic acid / uridine / xanthosine: change in metabolite level after compound treatment; for D-sedoheptulose-1/7-phosphate: metabolite D-sedoheptulose-1/7-phosphate; for FAD: metabolite FAD; for GMP: metabolite GMP; for NAD+: metabolite NAD+; for NADP+: metabolite NADP+; for Octoluse Bisphosphate: metabolite Octoluse Bisphosphate; for Pyroglutamic acid: metabolite Pyroglutamic acid; for UDP-D-glucose: metabolite UDP-D-glucose; for UDP-D-glucuronate: metabolite UDP-D-glucuronate; for UDP-N-acetyl-glucosamine: metabolite UDP-N-acetyl-glucosamine; for UDP: metabolite UDP; for UMP: metabolite UMP; for UTP: metabolite UTP; for a-ketoglutarate: metabolite a-ketoglutarate; for citrate/isocitrate: metabolite citrate/isocitrate; for cytidine: metabolite cytidine; for dATP: metabolite dATP; for dGMP/AMP: metabolite dGMP/AMP; for fumarate: metabolite fumarate; for glucose-1/6-phosphate: metabolite glucose-1/6-phosphate; for glycerate: metabolite glycerate; for guanine: metabolite guanine; for guanosine: metabolite guanosine; for hypoxanthine: metabolite hypoxanthine; for indole: metabolite indole; for inosine: metabolite inosine; for 2_3-Diphosphoglyceric acid / 4-phosphopantothenate / 6-phospho-D-gluconate / FMN / IMP / Pyrophosphate / Sedoheptoluse bisphosphate / cyclic-AMP / glutathione disulfide / lactate / myo-inositol: metabolite level change after treatment; for nicotinate: metabolite nicotinate; for ornithine: metabolite ornithine; for phosphoenolpyruvate: metabolite phosphoenolpyruvate; for pyruvate: metabolite pyruvate; for ribose-phosphate: metabolite ribose-phosphate; for sarcosine/alanine: metabolite sarcosine/alanine; for sn-glycerol-3-phosphate: metabolite sn-glycerol-3-phosphate; for succinate/methylmalonic acid: metabolite succinate/methylmalonic acid; for uridine: metabolite uridine; for xanthosine: metabolite xanthosine

Cc1cccc(Nc2nc(N)c3ccccc3n2)c1 [MMV019110]
EC50 (P. falciparum): 400 nM
Acetyllysine [1]: -0.7861
N-acetyl-L-ornithine [1]: -0.3066
N-carbamoyl-L-aspartate [1]: 0.8718
NADPH [1]: 1.0636
dAMP [1]: 0.1705
dCMP [1]: -1.068
dTDP [1]: -0.2853
dTMP [1]: -0.4806
dTTP [1]: -0.142
dihydroorotate [1]: 1.069
orotate [1]: -0.7263
DLH [1]: -1.2334
DLS/SDL/SID [1]: -0.8825
PD [1]: -0.6502
PEE [1]: -0.294
PVNF [1]: -0.8541
3-phosphoglycerate [1]: 0.2769
ADP-D-glucose [1]: 0.08672
ATP [1]: 0.01278
CDP [1]: -0.4413
D-sedoheptulose-1/7-phosphate [1]: -0.5631
FAD [1]: -0.04154
GMP [1]: 0.0758
NAD+ [1]: -0.03841
NADP+ [1]: 0.1589
Octoluse Bisphosphate [1]: -0.09051
Pyroglutamic acid [1]: -0.4571
UDP-D-glucose [1]: -0.005349
UDP-D-glucuronate [1]: 0.1448
UDP-N-acetyl-glucosamine [1]: -0.09963
UDP [1]: -0.5337
UMP [1]: -0.1391
UTP [1]: -0.1864
a-ketoglutarate [1]: -0.9521
citrate/isocitrate [1]: -0.8432
cytidine [1]: 0.1554
dATP [1]: -0.04411
dGMP/AMP [1]: 0.02273
fumarate [1]: -0.3633
glucose-1/6-phosphate [1]: -0.2644
glycerate [1]: -1.224
guanine [1]: -1.026
guanosine [1]: -2.158
hypoxanthine [1]: -0.00849
indole [1]: -0.09763
inosine [1]: -0.6039
2_3-Diphosphoglyceric acid [1]: -0.1372
4-phosphopantothenate [1]: -0.5707
6-phospho-D-gluconate [1]: -0.1735
FMN [1]: 0.07582
IMP [1]: -0.3382
Pyrophosphate [1]: -0.02007
Sedoheptoluse bisphosphate [1]: -0.1834
cyclic-AMP [1]: -0.2741
glutathione disulfide [1]: -0.5227
lactate [1]: -1.008
myo-inositol [1]: -1.363
nicotinate [1]: -1.278
ornithine [1]: 0.0513
phosphoenolpyruvate [1]: 0.03081
pyruvate [1]: -1.488
ribose-phosphate [1]: -0.08015
sarcosine/alanine [1]: -0.6413
sn-glycerol-3-phosphate [1]: -0.02952
succinate/methylmalonic acid [1]: -0.4318
uridine [1]: -1.131
xanthosine [1]: -0.9126

Cc1ccc(N2C(=O)C3C(C2=O)C2(c4ccccc4)C(=O)C3(c3ccccc3)C(c3ccccc3)=C2c2ccccc2)cc1 (stereo not drawn) [MMV666062]
EC50 (P. falciparum): 282 nM
Acetyllysine [1]: -0.1709
N-acetyl-L-ornithine [1]: -0.324
N-carbamoyl-L-aspartate [1]: -0.2951
NADPH [1]: -0.2149
dAMP [1]: -0.4875
dCMP [1]: -0.7263
dTDP [1]: -0.1985
dTMP [1]: -0.6991
dTTP [1]: -0.2344
dihydroorotate [1]: -0.213
orotate [1]: -0.7199
DLH [1]: -0.006238
DLS/SDL/SID [1]: -0.3315
PD [1]: -0.3487
PEE [1]: -0.01834
PVNF [1]: -0.09341
3-phosphoglycerate [1]: -1.0087
ADP-D-glucose [1]: -0.2764
ATP [1]: -0.1502
CDP [1]: -0.3978
D-sedoheptulose-1/7-phosphate [1]: -0.4359
FAD [1]: -0.2118
GMP [1]: -0.3584
NAD+ [1]: -0.2488
NADP+ [1]: -0.1786
Octoluse Bisphosphate [1]: -0.3963
Pyroglutamic acid [1]: -0.08618
UDP-D-glucose [1]: -0.2942
UDP-D-glucuronate [1]: -0.1481
UDP-N-acetyl-glucosamine [1]: -0.3667
UDP [1]: -0.4806
UMP [1]: -0.3962
UTP [1]: -0.1426
a-ketoglutarate [1]: -0.4814
citrate/isocitrate [1]: -0.07191
cytidine [1]: -0.4412
dATP [1]: -0.199
dGMP/AMP [1]: -0.7601
fumarate [1]: -0.1898
glucose-1/6-phosphate [1]: 0.1468
glycerate [1]: -0.3247
guanine [1]: -0.8033
guanosine [1]: -0.4206
hypoxanthine [1]: -0.5014
indole [1]: -0.4173
inosine [1]: -0.516
2_3-Diphosphoglyceric acid [1]: -0.1968
4-phosphopantothenate [1]: -0.3798
6-phospho-D-gluconate [1]: -0.105
FMN [1]: -0.4755
IMP [1]: -0.5384
Pyrophosphate [1]: -0.0001746
Sedoheptoluse bisphosphate [1]: -0.4955
cyclic-AMP [1]: -0.438
glutathione disulfide [1]: -0.4046
lactate [1]: -0.3401
myo-inositol [1]: 0.6705
nicotinate [1]: -0.6806
ornithine [1]: -0.4373
phosphoenolpyruvate [1]: -0.3807
pyruvate [1]: -0.5819
ribose-phosphate [1]: -0.7488
sarcosine/alanine [1]: -0.5636
sn-glycerol-3-phosphate [1]: -0.1452
succinate/methylmalonic acid [1]: -0.2494
uridine [1]: -0.8945
xanthosine [1]: -0.2816

CCn1c(CN2CCN(Cc3ccccc3)CC2)nc2cc(NC(=O)c3cccs3)ccc21 [MMV020439]
EC50 (P. falciparum): 512 nM
Acetyllysine [1]: 0.7202
N-acetyl-L-ornithine [1]: 1.173
N-carbamoyl-L-aspartate [1]: 4.61
NADPH [1]: 0.6182
dAMP [1]: -1.31
dCMP [1]: -0.04169
dTDP [1]: -1.17
dTMP [1]: -0.7966
dTTP [1]: -1.312
dihydroorotate [1]: 4.909
orotate [1]: 0.06984
DLH [1]: 0.527
DLS/SDL/SID [1]: 0.4749
PD [1]: 0.8243
PEE [1]: 1.011
PVNF [1]: 0.2931
3-phosphoglycerate [1]: -0.2906
ADP-D-glucose [1]: 0.1986
ATP [1]: -0.1401
CDP [1]: -0.619
D-sedoheptulose-1/7-phosphate [1]: 0.1339
FAD [1]: 0.2064
GMP [1]: -0.008752
NAD+ [1]: -0.02079
NADP+ [1]: 0.1784
Octoluse Bisphosphate [1]: -0.1148
Pyroglutamic acid [1]: -0.1051
UDP-D-glucose [1]: -0.06605
UDP-D-glucuronate [1]: -0.1248
UDP-N-acetyl-glucosamine [1]: -0.297
UDP [1]: -1.2
UMP [1]: -1.107
UTP [1]: -1.42
a-ketoglutarate [1]: -0.8941
citrate/isocitrate [1]: -0.2089
cytidine [1]: 0.004614
dATP [1]: 0.08773
dGMP/AMP [1]: -0.284
fumarate [1]: 0.6925
glucose-1/6-phosphate [1]: -0.2278
glycerate [1]: -0.4348
guanine [1]: 0.1895
guanosine [1]: 0.2428
hypoxanthine [1]: -0.1751
indole [1]: -0.1227
inosine [1]: -0.4694
2_3-Diphosphoglyceric acid [1]: -0.2253
4-phosphopantothenate [1]: -0.909
6-phospho-D-gluconate [1]: -0.007867
FMN [1]: -0.349
IMP [1]: -0.2804
Pyrophosphate [1]: -0.2048
Sedoheptoluse bisphosphate [1]: 0.08493
cyclic-AMP [1]: -0.08461
glutathione disulfide [1]: -0.0242
lactate [1]: -0.4874
myo-inositol [1]: -0.8159
nicotinate [1]: -0.2742
ornithine [1]: -0.03081
phosphoenolpyruvate [1]: -0.3915
pyruvate [1]: -0.2887
ribose-phosphate [1]: -0.1311
sarcosine/alanine [1]: 1.094
sn-glycerol-3-phosphate [1]: 0.2993
succinate/methylmalonic acid [1]: 0.5601
uridine [1]: 0.2091
xanthosine [1]: -0.0525
